Experiment [1] concerns the target T1, 5-HT2B receptor (Homo sapiens, UniProt P41595). As to the kind of experiment: In vitro functional assay for 5-HT2 receptor (intracellular calcium, FLIPR), 5-HT2B. The settings on record: same cell lines as receptor binding, read-out: pKb 5-HT2B (converted). The format is cell-based. How it is done:
In vitro functional properties of these compounds on the different 5-HT2 receptor substypes were determined using fluorometric imaging plate reader (FLIPR) based calcium assay as previously described (Porter, R. H. et al. Br. J. Pharmacol. 1999, 128, 13-20; Jerman, J. C. et al. Eur. J. Pharmacol. 2001, 414, 23-30). The 5-HT2 receptors are linked to the Gq family of G proteins and to subsequent activation of phospholipase C, induction of phosphoinositide metabolism and to an increase in intracelular calcium concentration. The same cell lines as described in the previous section (receptor binding) were used for the FLIPR experiments.

Experiment [2] concerns the target T2, 5-HT2A receptor (Homo sapiens, UniProt P28223). As to the kind of experiment: In vitro functional assay for 5-HT2 receptor (intracellular calcium, FLIPR), 5-HT2A. The format is cell-based. Particulars: same cell lines as receptor binding, read-out: pKb 5-HT2A (converted). From the text:
The 5-HT2 receptors are linked to the Gq family of G proteins and to subsequent activation of phospholipase C, induction of phosphoinositide metabolism and to an increase in intracelular calcium concentration. The same cell lines as described in the previous section (receptor binding) were used for the FLIPR experiments.

Another experiment addresses rat 5-HT7a receptor (Rattus norvegicus, UniProt P32305). As to the kind of experiment: Affinity for 5-HT7 receptor binding sites, radioligand binding with [3H]5-CT. The settings on record: membranes of HEK-293 cells with rat 5-HT7a, 1 nM [3H]5-CT. Put shortly:
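Competition binding on membranes from HEK-293 cells stably expressing rat 5-HT7a, 135 μg protein/mL in 50 mM Tris-HCl pH 7.5, 5 mM EDTA. Incubated 60 min at RT with 1 nM [3H]5-CT and increasing compound concentrations; nonspecific binding with 10 μM 5-HT. Filtration and scintillation counting, in triplicate.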

For experiment [3], the target named is T1, 5-HT2B receptor. Put plainly: Affinity for 5HT2 receptor binding sites, h5-HT2B, [3H]mesulergine. Particulars: CHO h5-HT2B membranes.
The target in experiment [4] is T2, 5-HT2A receptor. Put plainly: Affinity for 5-HT2A receptor binding sites, radioligand binding with [3H]ketanserin. Particulars: read-out: Ki 5-HT2A, rat cortex membranes (assay 2) or NIH3T3 h5-HT2A membranes (assay 3), table does not say which.
For experiment [5], the target named is T3, human recombinant 5-HT2C receptor (Homo sapiens, UniProt P28335).
T3 sequence (P28335 33-458): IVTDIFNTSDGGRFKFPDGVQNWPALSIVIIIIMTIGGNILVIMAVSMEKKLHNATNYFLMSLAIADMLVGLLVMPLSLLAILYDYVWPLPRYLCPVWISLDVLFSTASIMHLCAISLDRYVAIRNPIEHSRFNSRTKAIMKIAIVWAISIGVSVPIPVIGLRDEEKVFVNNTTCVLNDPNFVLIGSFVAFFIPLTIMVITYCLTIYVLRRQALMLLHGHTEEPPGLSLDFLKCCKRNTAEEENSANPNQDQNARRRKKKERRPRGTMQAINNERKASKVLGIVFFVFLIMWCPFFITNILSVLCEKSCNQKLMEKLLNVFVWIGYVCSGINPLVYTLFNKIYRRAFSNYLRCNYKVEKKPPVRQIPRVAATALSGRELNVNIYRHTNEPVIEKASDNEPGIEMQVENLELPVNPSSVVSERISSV
Put plainly: Affinity for 5HT2 receptor binding sites, h5-HT2C, [3H]mesulergine. The settings on record: CHO h5-HT2C membranes.
Experimental: Sigmoidal inhibition curves were generated and fitted by nonlinear regression analysis (GraphPad Prism).
Receptor binding was performed using the human recombinant 5-HT2A (GB: X57830), 5-HT2B (GB: Z36748) and 5-HT2C (GB: M81778) receptors. The affinity of the compounds for the 3 different human 5-HT2 receptor subtypes was evaluated by competitive radioligand binding assays using [^3H]ketanserin (h5-HT2A) or [^3H]mesulergine (h5-HT2B and h5-HT2C). The assays were performed on membranes prepared from NIH3T3 stably transfected with h5-HT2A or CHO stably transfected with h5-HT2B and h5-HT2C.

Experiment [6] concerns the target human recombinant 5-HT6 receptor (Homo sapiens, UniProt P50406). As to the kind of experiment: Affinity for 5-HT6 receptor binding sites, [3H]LSD. The settings on record: HEK-293 h5-HT6 membranes.

The record followed here is patent publication US7598255B2 (Janssen Pharmaceutica NV, priority 2005, dated 2009).

Structures can show the parent of a compound that is named as a salt.

T2 sequence (P28223 whole entry): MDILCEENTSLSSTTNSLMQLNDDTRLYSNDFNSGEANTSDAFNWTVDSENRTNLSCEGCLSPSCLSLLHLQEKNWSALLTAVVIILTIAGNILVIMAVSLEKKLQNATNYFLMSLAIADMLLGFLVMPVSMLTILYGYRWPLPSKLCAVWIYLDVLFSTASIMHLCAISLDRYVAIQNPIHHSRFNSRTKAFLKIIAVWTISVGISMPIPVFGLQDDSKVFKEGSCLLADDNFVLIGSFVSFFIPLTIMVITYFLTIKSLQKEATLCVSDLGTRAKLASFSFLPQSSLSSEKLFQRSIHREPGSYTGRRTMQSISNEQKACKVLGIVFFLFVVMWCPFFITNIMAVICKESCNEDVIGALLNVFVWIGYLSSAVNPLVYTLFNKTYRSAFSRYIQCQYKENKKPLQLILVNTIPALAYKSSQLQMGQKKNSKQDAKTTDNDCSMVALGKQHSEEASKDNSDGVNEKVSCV
T1 sequence (P41595 whole entry): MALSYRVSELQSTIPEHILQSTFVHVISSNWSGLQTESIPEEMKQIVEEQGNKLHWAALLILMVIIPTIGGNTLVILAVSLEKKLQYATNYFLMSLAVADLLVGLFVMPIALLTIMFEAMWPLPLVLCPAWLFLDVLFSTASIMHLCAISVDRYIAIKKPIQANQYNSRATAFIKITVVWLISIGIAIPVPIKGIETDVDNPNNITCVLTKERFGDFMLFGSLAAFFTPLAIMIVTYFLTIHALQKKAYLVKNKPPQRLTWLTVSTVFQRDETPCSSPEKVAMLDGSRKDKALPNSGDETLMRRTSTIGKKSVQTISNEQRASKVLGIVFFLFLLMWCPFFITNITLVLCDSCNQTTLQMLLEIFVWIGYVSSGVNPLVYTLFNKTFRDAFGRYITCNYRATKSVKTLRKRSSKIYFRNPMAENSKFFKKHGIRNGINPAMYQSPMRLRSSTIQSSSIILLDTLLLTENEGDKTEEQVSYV
human recombinant 5-HT6 receptor, sequence (P50406 whole entry): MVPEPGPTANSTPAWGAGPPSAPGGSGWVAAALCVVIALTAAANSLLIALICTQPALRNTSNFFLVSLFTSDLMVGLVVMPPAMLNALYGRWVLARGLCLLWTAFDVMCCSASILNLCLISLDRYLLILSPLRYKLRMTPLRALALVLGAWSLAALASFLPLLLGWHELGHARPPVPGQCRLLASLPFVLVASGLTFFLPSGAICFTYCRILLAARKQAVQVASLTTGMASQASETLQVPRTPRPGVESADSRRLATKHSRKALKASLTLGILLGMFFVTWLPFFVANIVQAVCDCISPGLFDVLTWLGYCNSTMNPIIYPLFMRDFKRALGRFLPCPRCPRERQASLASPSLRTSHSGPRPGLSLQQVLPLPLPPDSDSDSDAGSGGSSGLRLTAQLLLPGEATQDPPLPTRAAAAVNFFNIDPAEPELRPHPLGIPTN
rat 5-HT7a receptor, sequence (P32305 whole entry): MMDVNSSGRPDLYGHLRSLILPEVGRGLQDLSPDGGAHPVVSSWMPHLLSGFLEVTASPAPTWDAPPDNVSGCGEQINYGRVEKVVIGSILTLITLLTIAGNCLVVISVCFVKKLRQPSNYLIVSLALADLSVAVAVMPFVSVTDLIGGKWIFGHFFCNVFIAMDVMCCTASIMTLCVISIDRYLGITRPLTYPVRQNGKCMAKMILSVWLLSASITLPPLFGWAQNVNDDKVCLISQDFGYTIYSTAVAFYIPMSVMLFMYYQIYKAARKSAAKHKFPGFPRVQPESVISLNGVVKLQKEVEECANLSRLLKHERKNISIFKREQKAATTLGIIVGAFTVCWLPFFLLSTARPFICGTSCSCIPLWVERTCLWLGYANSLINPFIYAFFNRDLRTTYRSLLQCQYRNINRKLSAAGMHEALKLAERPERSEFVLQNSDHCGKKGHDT

`Fc1ccc(Cc2nc3c(c(-c4ccc(F)cc4)n2)CCNCC3)cc1` [Example 57, 2-(4-Fluoro-benzyl)-4-(4-fluoro-phenyl)-6,7,8,9-tetrahydro-5H-pyrimido[4,5-d]azepine]: the Kb is 126 nM on 5-HT2B receptor [1] and 6.31 nM on 5-HT2A receptor [2]. For the same molecule, the Ki at rat 5-HT7a receptor stood at 550 nM; on 5-HT2B receptor [3] it was 40 nM; on 5-HT2A receptor [4], 0.7 nM; in experiment [5], 50 nM; in experiment [6], 80 nM.

Turning to `c1ccc(Cc2nc3c(c(-c4ccccc4)n2)CCNC3)cc1` [Example 78, 2-Benzyl-4-phenyl-5,6,7,8-tetrahydro-pyrido[3,4-d]pyrimidine], the Kb on 5-HT2A receptor [2] is 79.4 nM. Besides, the Ki on rat 5-HT7a receptor was determined as 400 nM; on 5-HT2B receptor [3], 900 nM; on 5-HT2A receptor [4], 25 nM; in experiment [5], 380 nM.

Consider `Cc1ccc(-c2nc(Cc3ccccc3)nc3c2CCN(C)CC3)cc1` [Example 61, 2-Benzyl-7-methyl-4-p-tolyl-6,7,8,9-tetrahydro-5H-pyrimido[4,5-d]azepine], for which the inhibition constant Ki on rat 5-HT7a receptor turned out to be 250 nM; on 5-HT2B receptor [3], 15 nM; at 5-HT2A receptor [4], 1.9 nM; in experiment [5] it was 35 nM; in experiment [6], 20 nM.

In the case of `CNC1CCc2nc(C(C)C)nc(-c3ccc(F)cc3)c2C1` (stereo not drawn) [Example 109, [4-(4-Fluoro-phenyl)-2-isopropyl-5,6,7,8-tetrahydro-quinazolin-6-yl]-methyl-amine hydrochloride], the inhibition constant Ki on rat 5-HT7a receptor is more than 10000 nM; on 5-HT2B receptor [3] it was more than 10000 nM; on 5-HT2A receptor [4], 400 nM; in experiment [5], more than 10000 nM; in experiment [6] it was more than 10000 nM.

Regarding `Cc1ccc(-c2nc(Cc3ccccc3)nc3c2CNCC3)cc1` [Example 8, 2-Benzyl-4-p-tolyl-5,6,7,8-tetrahydro-pyrido[4,3-d]pyrimidine], the Ki on rat 5-HT7a receptor amounted to 1000 nM; at 5-HT2B receptor [3], 1000 nM; at 5-HT2A receptor [4] it was 20 nM; in experiment [5] it was 320 nM; in experiment [6], 200 nM.

Regarding `Fc1ccc(-c2nc(C3CCCC3)nc3c2CNCC3)cc1` [Example 17, 2-Cyclopentyl-4-(4-fluoro-phenyl)-5,6,7,8-tetrahydro-pyrido[4,3-d]pyrimidine], the Kb is 3980 nM at 5-HT2B receptor [1] and 7.94 nM on 5-HT2A receptor [2]. Moreover, the inhibitory constant (Ki) is more than 10000 nM on rat 5-HT7a receptor, 250 nM on 5-HT2B receptor [3], 4 nM on 5-HT2A receptor [4] and 70 nM in experiment [5].

In the case of `CC(C)c1nc(-c2ccc(F)cc2)c2c(n1)C(C)CNC2` (stereo not drawn) [Example 100, 4-(4-Fluoro-phenyl)-2-isopropyl-8-methyl-5,6,7,8-tetrahydro-pyrido[4,3-d]pyrimidine hydrochloride], on 5-HT2A receptor [2], the Kb is 100 nM. In addition, the Ki was more than 10000 nM on rat 5-HT7a receptor, 900 nM on 5-HT2B receptor [3], 14 nM at 5-HT2A receptor [4] and 300 nM in experiment [5].

On to `CC(C)c1nc2c(c(-c3ccc(F)cc3)n1)CCNCC2` [Example 50, 4-(4-Fluoro-phenyl)-2-isopropyl-6,7,8,9-tetrahydro-5H-pyrimido[4,5-d]azepine hydrochloride], for which the Kb at 5-HT2B receptor [1] was 5.01 nM. The Ki came to 240 nM on rat 5-HT7a receptor; 20 nM at 5-HT2B receptor [3]; 3.7 nM at 5-HT2A receptor [4]; 80 nM in experiment [5]; 260 nM in experiment [6].

As to `Fc1ccc(Cc2nc3c(c(-c4ccc(F)cc4)n2)CNCC3)cc1` [Example 13, 2-(4-Fluoro-benzyl)-4-(4-fluoro-phenyl)-5,6,7,8-tetrahydro-pyrido[4,3-d]pyrimidine], at 5-HT2A receptor [2], the Kb was 79.4 nM. Moreover, the Ki on rat 5-HT7a receptor was more than 10000 nM; on 5-HT2B receptor [3], 2200 nM; on 5-HT2A receptor [4], 12.5 nM; in experiment [5], 1000 nM.

Turning to `Fc1ccc(-c2nc(Cc3ccccc3)nc3c2CCNCC3)cc1` [Example 54, 2-Benzyl-4-(4-fluoro-phenyl)-6,7,8,9-tetrahydro-5H-pyrimido[4,5-d]azepine], the inhibition constant Ki on rat 5-HT7a receptor was 5000 nM; at 5-HT2B receptor [3], 30 nM; on 5-HT2A receptor [4] it was 0.55 nM; in experiment [5], 20 nM; in experiment [6], 30 nM.

On to `CC(C)N1CCc2c(nc(Cc3ccccc3)nc2-c2ccc(F)cc2)C1` [Example 83, 2-Benzyl-4-(4-fluoro-phenyl)-7-isopropyl-5,6,7,8-tetrahydro-pyrido[3,4-d]pyrimidine], for which the inhibition constant Ki was more than 10000 nM on rat 5-HT7a receptor; 1000 nM on 5-HT2B receptor [3]; 30 nM at 5-HT2A receptor [4]; 300 nM in experiment [5]; 230 nM in experiment [6].

For `Fc1ccc(-c2nc(Cc3ccccc3)nc3c2CCNC3)cc1` [Example 76, 2-Benzyl-4-(4-fluoro-phenyl)-5,6,7,8-tetrahydro-pyrido[3,4-d]pyrimidine hydrochloride], on 5-HT2A receptor [2], the Kb is 100 nM. In addition, the Ki on rat 5-HT7a receptor was 150 nM; on 5-HT2B receptor [3] it was 315 nM; at 5-HT2A receptor [4] it was 9 nM; in experiment [5], 75 nM; in experiment [6], 300 nM.

For the molecule `CC(C)c1nc2c(c(-c3ccc(Cl)cc3)n1)CNCC2` [Example 29, 4-(4-Chloro-phenyl)-2-isopropyl-5,6,7,8-tetrahydro-pyrido[4,3-d]pyrimidine], the inhibition constant (Ki) on rat 5-HT7a receptor was more than 10000 nM; on 5-HT2B receptor [3], 1600 nM; on 5-HT2A receptor [4] it was 240 nM; in experiment [5] it was 2000 nM; in experiment [6], more than 10000 nM.

Turning to `CN1CCc2nc(C3CCCC3)nc(-c3ccc(F)cc3)c2CC1` [Example 58, 2-Cyclopentyl-4-(4-fluoro-phenyl)-7-methyl-6,7,8,9-tetrahydro-5H-pyrimido[4,5-d]azepine], the Ki on rat 5-HT7a receptor is more than 10000 nM; on 5-HT2B receptor [3], 40 nM; at 5-HT2A receptor [4], 2 nM; in experiment [5] it was 30 nM; in experiment [6], 100 nM.

For `Fc1ccc(-c2nc(Cc3ccccc3)nc3c2CCCNC3)cc1` [Example 64, 2-Benzyl-4-(4-fluoro-phenyl)-6,7,8,9-tetrahydro-5H-pyrimido[4,5-c]azepine hydrochloride], the Kb on 5-HT2A receptor [2] is 79.4 nM. The inhibition constant (Ki) at rat 5-HT7a receptor was more than 10000 nM; on 5-HT2B receptor [3], 1300 nM; on 5-HT2A receptor [4], 10 nM; in experiment [5] it was 70 nM; in experiment [6] it was 1300 nM.

As for `Fc1ccc(-c2nc(C3CCCC3)nc3c2CCNCC3)cc1` [Example 46, 2-Cyclopentyl-4-(4-fluoro-phenyl)-6,7,8,9-tetrahydro-5H-pyrimido[4,5-d]azepine], the Ki at rat 5-HT7a receptor turned out to be 120 nM; on 5-HT2B receptor [3] it was 30 nM; on 5-HT2A receptor [4] it was 14 nM; in experiment [5] it was 200 nM; in experiment [6] it was 100 nM.

`CC(C)c1nc2c(c(-c3ccc(F)cc3)n1)CCCNC2` [Example 65, 4-(4-Fluoro-phenyl)-2-isopropyl-6,7,8,9-tetrahydro-5H-pyrimido[4,5-c]azepine hydrochloride]: the Ki was more than 10000 nM at rat 5-HT7a receptor; 300 nM at 5-HT2B receptor [3]; 20 nM at 5-HT2A receptor [4]; 570 nM in experiment [5]; more than 10000 nM in experiment [6].

As to `Cc1ccc(-c2nc(Cc3ccccc3)nc3c2CCNC3)cc1` [Example 77, 2-Benzyl-4-p-tolyl-5,6,7,8-tetrahydro-pyrido[3,4-d]pyrimidine hydrochloride], the Ki at rat 5-HT7a receptor came out at 22 nM; on 5-HT2B receptor [3], 200 nM; at 5-HT2A receptor [4], 15 nM; in experiment [5], 130 nM; in experiment [6], 400 nM.

Consider `CC(C)c1nc2c(c(-c3ccc(F)cc3)n1)CNCC2` [Example 21, 4-(4-Fluoro-phenyl)-2-isopropyl-5,6,7,8-tetrahydro-pyrido[4,3-d]pyrimidine hydrochloride], for which the Kb at 5-HT2A receptor [2] was 31.6 nM. Moreover, the inhibitory constant (Ki) was more than 10000 nM on rat 5-HT7a receptor; 1190 nM on 5-HT2B receptor [3]; 25 nM on 5-HT2A receptor [4]; 1170 nM in experiment [5]; more than 10000 nM in experiment [6].
